The term Kd denotes the equilibrium constant for the complex coming apart. Usually inhibition stands for the drop in the measured response relative to a control, in per cent. The low end stands for little suppression, the high end for strong suppression.

Read-outs that look alike come from different tables or passages of the source.

These results are taken from patent US9180175B2, “Methods of use for a natural Thomsen-Friedenreich disaccharide compound” (UNIVERSITY OF MARYLAND, BALTIMORE, priority 2011, dated 2015).

For assay [1], the target named is T1, gal3 (Homo sapiens, UniProt P17931).
T1 construct: made in house
T1 sequence (P17931 whole entry): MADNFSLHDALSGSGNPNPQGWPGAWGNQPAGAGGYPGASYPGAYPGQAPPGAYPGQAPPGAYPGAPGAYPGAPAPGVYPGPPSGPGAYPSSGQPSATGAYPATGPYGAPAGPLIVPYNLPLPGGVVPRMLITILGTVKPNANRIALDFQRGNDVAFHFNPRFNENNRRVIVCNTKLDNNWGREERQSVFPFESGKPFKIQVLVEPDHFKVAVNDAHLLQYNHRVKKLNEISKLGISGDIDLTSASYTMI
Briefly: Surface plasmon resonance (Biacore) kinetics and affinity for gal3. Type of assay: binding. The conditions noted are these: SPR, biotinylated gal3 on chip. On the procedure: The binding kinetics and affinity of a few carbohydrates for gal3 were measured in Surface Plasmon Resonance (SPR)-based binding assays using a Biacore™ T200 instrument (GE Healthcare). Biotinylated gal3 was attached to Biacore Sensor Chip SA (GE Healthcare) according to the instructions. For this purpose, biotinlyated gal3 was diluted into HBS-EP+ (GE Heathcare) to a concentration of 1 μg/mL and captured onto the streptavidin surface to a final level of 1750 RU. A reference surface was prepared with biotin captured onto the streptavidin. […] The binding response of small carbohydrate ligands were measured in Resonance units (RU) in real time at 10 HZ. These carbohydrates were injected for 30 seconds at 50 μL/min, and 30 seconds of dissociation data were collected. […] Raw sensorgram data were reference subtracted and blank subtracted prior to kinetic and affinity analysis. Biacore™ T200 Evaluation software was used for Steady-state affinity analysis and kinetic analysis.
Background: In SPR one partner is held on a chip, and binding of the other changes the refractive index at the surface.

Assay [2] addresses gal9N (N-terminal of gal9) (UniProt O00182). In words: Solid phase binding-inhibition assay: gal9N binding to asialofetuin. The conditions noted are these: read-out: I50 value.
In a further assay the test system is Jurkat cells. In words: Gal3-mediated apoptosis of Jurkat cells. Type of assay: cell-based, human. The text has this:
(§1) Jurkat cells were used for gal3-mediated apoptosis at various concentration of gal3. To investigate gal3-mediated apoptosis of human CD8^+ cells, peripheral blood mononuclear cells (PBMCs) were isolated from chronic leukemia patients using Ficoll-paque density gradient method (39) followed by negative selection of CD8^+ cells with a cocktail of antibodies using a kit (BD Biosciences, MD). The presence of CD8^+ cells in the purified fraction was confirmed by staining cells with anti-CD8 antibody.

Another assay concerns the target T2, gal4 (Homo sapiens, UniProt P56470).
T2 sequence (P56470 1-323): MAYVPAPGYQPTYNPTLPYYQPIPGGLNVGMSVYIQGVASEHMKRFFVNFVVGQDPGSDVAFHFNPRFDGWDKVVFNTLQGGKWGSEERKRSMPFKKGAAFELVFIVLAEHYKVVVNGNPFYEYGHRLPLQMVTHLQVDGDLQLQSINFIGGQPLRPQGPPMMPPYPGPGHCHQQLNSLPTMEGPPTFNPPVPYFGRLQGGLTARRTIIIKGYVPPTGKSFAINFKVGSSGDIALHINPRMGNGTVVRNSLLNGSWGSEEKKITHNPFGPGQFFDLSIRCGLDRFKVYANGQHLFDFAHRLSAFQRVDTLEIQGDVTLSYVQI
In words: Solid phase binding-inhibition assay: gal4 binding to asialofetuin. The conditions noted are these: read-out: I50 value.

A further assay deals with human CD8+ T cells. In words: Gal3-mediated apoptosis of human CD8+ T cells (annexin V). Type of assay: cell-based.
Source text: as §1

For assay [3], the system named is activated pmel T cells on B16 melanoma cells. In words: B16 melanoma cell-associated apoptosis of activated pmel T cells. The format is cell-based, mouse. The conditions noted are these: B16 monolayer about 24 h; untreated about 53%; TFD100 3.5 nM, lactose 50 μM. On the procedure:
To investigate if tumor-associated gal3 can induce tumor specific CD8 T cells, we used B16 melanoma-specific transgenic D90.1 CD8 T cells (pmel T cells) (40). After harvesting T cells from mouse spleen, cells were activated with a peptide (40), mixed with a monolayer of B16 melanoma cells and apoptosis was measured by Annexin V binding after gating with anti-CD8 antibodies.

In a further assay the test system is MOLT-4 cells. In words: Gal3-mediated apoptosis of MOLT-4 cells (annexin V). Type of assay: cell-based, human.
Assay [4] concerns the target T1, gal3. Briefly: Solid phase binding-inhibition assay: gal3 binding to asialofetuin. The conditions noted are these: for IC50: read-out: I50 value (converted). As for the experimental part: Briefly, asialofetuin (0.5 μg/100 μl/well) in 0.1 M Na2CO3/0.02% NaN3 (pH 9.6) was adsorbed onto the wells of microtiter plates (Immulon; Dynatech Laboratories, Chantilly, Va.) at 37° C. for 3 h, and the bound glycoprotein was fixed with 2% formaldehyde in phosphate-buffered saline (PBS, 10 mM phosphate, 140 mM NaCl, pH 7.5) at 37° C. for 30 min. The plates were washed three times with PBS (azide-free)/0.05% Tween 20, and incubated with the gal3-biotin conjugate (10 ng/100 μl/well for binding assays) or with preincubated mixture of equal volume of conjugate and varying concentrations of test ligands (for binding-inhibition assays). After incubation for 1 h at 4° C., the plates were washed with ice-cold azide-free PBS-Tween 20, and the bound conjugate was allowed to interact with peroxidase labeled streptavidin (0.05 μg/100 μl well) in azide-free PBS-Tween for 1 h at 4° C. The plate was washed with ice-cold azide free PBS-Tween and the bound peroxidase activity was assayed with peroxidase substrate diammonium 2,2′-azinobis(3-ethylbenzothiazoline-6-sulfonate) (KPL, Rockville, Md.) (37). […] After incubation for 2 h on ice, the mix was dialyzed with PBS and purified by affinity chromatography on lactosyl-Sepharose (37). The purified gal3-biotin conjugate was dialyzed with PBS and stored in 1% BSA-50% glycerol at −20° C. until further use. […] O-Glycosidase treatment removes TF-disaccharide from protein (cleaves GalNAc-Ser/Thr linkage).

The test system of another assay is HUVEC. In words: In vitro angiogenesis (tube formation) of HUVEC. The format is cell-based, human. The conditions noted are these: recombinant gal3 5 μM, number of branching. On the procedure: After 5 h, the microvessel formation was analyzed under phase contrast microscope at the 10× magnification. For quantitation of tube formation, the number of branching was counted in six areas (each […]) of each well and an average value was taken.

The next assay deals with pmel T cells. Briefly: Recombinant gal3-mediated apoptosis of tumor-specific CD8+ (pmel) T cells. The format is cell-based, mouse.

With `CC(=O)N[C@H]1C(O)O[C@H](CO)[C@@H](O[C@@H]2O[C@H](CO)[C@H](O)[C@H](O)[C@H]2O)[C@@H]1O` (some centres unmarked) [N-acetyllactosamine], on gal3 [1], the affinity, expressed as Kd, was 25 µM.

In the case of `OC[C@H]1O[C@@H](O[C@H]2[C@H](O)[C@@H](O)C(O)O[C@@H]2CO)[C@H](O)[C@@H](O)[C@H]1O` (some centres unmarked) [Lactose], the IC50 turned out to be 100 µM in [2] and 10000 µM at gal4. The inhibition at 50 µM was about 30% in the assay with Jurkat cells (Homo sapiens, Jurkat); about 67% with human CD8+ T cells (Homo sapiens, T-cell); about 20% in the assay with MOLT-4 cells (Homo sapiens, MOLT-4). Moreover, in [3], the “apoptosis of T cells reduced to” value stood at 39%.

The compound `CC(=O)NC1C(O)OC(CO)C(O)C1OC1OC(CO)C(O)C(O)C1O` (centres unmarked) [TFD, Galβ1,3GalNAc] yielded a dissociation constant (Kd) on gal3 [1] of 636 µM. Further, the “RIA, relative inhibitory activity compared to lactose (taken as 1)” value on gal3 [4] (from I50 in μg/ml, Table 1) was 0.47. The IC50 is 200 µM at gal3 [4] (gal3 binding to asialofetuin) and 151 µM on gal3 [4] (inhibition of gal3 binding to asialofetuin, Table 1).

In the case of “gal3: purified recombinant galectin-3, used as inducer of angiogenesis and T cell apoptosis”, in the assay with Jurkat cells (gal3 5 μM), the gal3-mediated apoptosis is listed as about 34%. Further, the “enhancement of tube formation” value with HUVEC is listed as about 25%. The compound further had a cells death with human CD8+ T cells (gal3 5 μM, flow cytometry) of about 54%. The “cell death of non-activated CD8+ T cells” value with pmel T cells (gal3 up to 15 μM, same as cells alone) is on record as about 22%. Further, the “apoptosis of activated CD8+ T cells” value with pmel T cells (recombinant gal3 5 μM, CD8 alone ~61%) is listed as about 76%. The cells undergoing apoptosis in the assay with MOLT-4 cells (gal3 5 μM, annexin V) is about 50%.
